Values of other authors as cited in patent US20180110939A1, “METHOD, SYSTEM AND APPARATUS FOR CONTROLLED DELIVERY OF OPIOID AND OTHER MEDICATIONS” (Somniferum Labs LLC, priority 2016, published 2018).

Legend:
[1] = for share of the total area under the concentration-time curve of morphine and its principle metabolites: following intravenous (IV) morphine administration in humans
[2] = converted via the liver
[3] = in vivo
[4] = in vivo; remark: listed apart in the source

| Compound | share of the total area under the concentration-time curve of morphine and its principle metabolites [1] | amount generated relative to M-6-G from a given amount of morphine [2] [times] | plasma protein binding | LD50 (lethal dose) [3] | time from which M-6-G was present in higher concentrations than morphine ([1]; following IV administration, h.p.l.c. method) [h] | plasma concentrations higher than morphine [4] |
| --- | --- | --- | --- | --- | --- | --- |
| CN1CC[C@]23c4c5ccc(O[C@@H]6O[C@H](C(=O)O)[C@@H](O)[C@H](O)[C@H]6O)c4O[C@H]2[C@@H](O)C=C[C@H]3[C@H]1C5 [M-3-G, morphine-3-glucuronide, reference compound] | approximately 75% | 5 |  |  |  |  |
| CN1CC[C@]23c4c5ccc(O)c4O[C@H]2[C@@H](O[C@@H]2O[C@H](C(=O)O)[C@@H](O)[C@H](O)[C@H]2O)C=C[C@H]3[C@H]1C5 [M-6-G, morphine-6-glucuronide] | 15% |  | low | no LD50 | ≥ 1 | approximately 4 fold |
